# pIC50: −log10 of the molar value.
# System: H460
# Test: Cellular H460 viability assay (CellTiter-Glo, 72 hours)
# Type: cell-based
# Details: Homo sapiens, NCI-H460
# How it was run: (§1)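 72 h treatment, 37 °C, 5% CO2; DMSO ctrl, final <0.1%; CellTiter-Glo luminescence; n=2.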
row,pIC50,SMILES
1,> 6.00,CC(C)c1cnn2c(NCc3ccccc3-c3ccc4ccccc4n3)cc(N3CCC(N)CC3)nc12 [Compound 73]
2,> 6.00,CC(C)c1cnn2c(NCc3ccccc3-n3cccn3)nc(-c3cccc(C(=O)N4CCC(N)CC4)c3)nc12 [Compound 171]
3,5.00 to 6.00,CC(C)c1cnn2c(NCc3ccccc3-c3nccc4ccccc34)nc(N3CCC(N)CC3)nc12 [Compound 79]

# Molecular target: T1, CDK2/Cyclin A (Homo sapiens, UniProt P24941)
# T1 construct: purchased Invitrogen PV6290
# Test: Enzymatic assay for CDK2 (FRET based LANCE Ultra kinase assay)
# Type: biochemical
# Details: read-out: CDK2 enzymatic activity (IC50 range)
# How it was run: (§2)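 LANCE Ultra TR-FRET: ULight-MBP peptide (68 nM) with ATP at Km, […], 60 min at 23° C. EDTA plus Eu-anti-phospho-MBP added, another 60 min, then 665/615 nm emission read. Compounds tested as 8-dose 4-fold DMSO dilutions.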
row,pIC50,SMILES
1,< 6.00,CC(C)c1cnn2c(NCc3ccccc3-c3ccc4ccccc4n3)cc(N3CCC(N)CC3)nc12 [Compound 73]
2,< 6.00,CC(C)c1cnn2c(NCc3ccccc3-n3cccn3)nc(-c3cccc(C(=O)N4CCC(N)CC4)c3)nc12 [Compound 171]
3,< 6.00,CC(C)c1cnn2c(NCc3ccccc3-c3nccc4ccccc34)nc(N3CCC(N)CC3)nc12 [Compound 79]

# Molecular target: T2, CDK5/p25 (Homo sapiens, UniProt Q00535)
# T2 construct: purchased Invitrogen PR8543B
# Test: Enzymatic assay for CDK5 (FRET based LANCE Ultra kinase assay)
# Type: biochemical
# Details: read-out: CDK5 enzymatic activity (IC50 range)
# How it was run: as §2
# T2 sequence (Q00535 whole entry): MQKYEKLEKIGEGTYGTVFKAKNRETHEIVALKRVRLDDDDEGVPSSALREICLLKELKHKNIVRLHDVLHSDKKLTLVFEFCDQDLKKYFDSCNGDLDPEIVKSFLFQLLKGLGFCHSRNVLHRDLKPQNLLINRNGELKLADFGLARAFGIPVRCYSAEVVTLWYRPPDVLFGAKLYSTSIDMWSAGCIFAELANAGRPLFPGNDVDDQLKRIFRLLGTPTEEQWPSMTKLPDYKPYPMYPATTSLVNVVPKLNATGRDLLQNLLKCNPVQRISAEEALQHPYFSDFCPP
# T2 sequence (Q15078 99-307 partner limits assumed): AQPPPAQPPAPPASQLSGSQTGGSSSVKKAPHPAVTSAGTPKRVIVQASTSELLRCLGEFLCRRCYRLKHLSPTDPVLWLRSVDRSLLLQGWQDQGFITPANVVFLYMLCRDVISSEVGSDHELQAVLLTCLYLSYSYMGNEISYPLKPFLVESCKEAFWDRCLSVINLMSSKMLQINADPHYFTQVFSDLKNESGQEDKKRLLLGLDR
row,pIC50,SMILES
1,6.00 to 7.00,CC(C)c1cnn2c(NCc3ccccc3-c3ccc4ccccc4n3)cc(N3CCC(N)CC3)nc12 [Compound 73]
2,< 6.00,CC(C)c1cnn2c(NCc3ccccc3-n3cccn3)nc(-c3cccc(C(=O)N4CCC(N)CC4)c3)nc12 [Compound 171]
3,< 6.00,CC(C)c1cnn2c(NCc3ccccc3-c3nccc4ccccc34)nc(N3CCC(N)CC3)nc12 [Compound 79]

# System: MV4-11
# Test: Cellular MV4-11 viability assay (CellTiter-Glo, 72 hours)
# Type: cell-based
# Details: Homo sapiens
# How it was run: as §1
row,pIC50,SMILES
1,> 6.00,CC(C)c1cnn2c(NCc3ccccc3-c3ccc4ccccc4n3)cc(N3CCC(N)CC3)nc12 [Compound 73]
2,> 6.00,CC(C)c1cnn2c(NCc3ccccc3-n3cccn3)nc(-c3cccc(C(=O)N4CCC(N)CC4)c3)nc12 [Compound 171]
3,5.00 to 6.00,CC(C)c1cnn2c(NCc3ccccc3-c3nccc4ccccc34)nc(N3CCC(N)CC3)nc12 [Compound 79]

# System: HCT116
# Test: Cellular HCT116 viability assay (CellTiter-Glo, 72 hours)
# Type: cell-based
# Details: Homo sapiens, HCT-116
# How it was run: as §1
row,pIC50,SMILES
1,> 6.00,CC(C)c1cnn2c(NCc3ccccc3-c3ccc4ccccc4n3)cc(N3CCC(N)CC3)nc12 [Compound 73]
2,> 6.00,CC(C)c1cnn2c(NCc3ccccc3-n3cccn3)nc(-c3cccc(C(=O)N4CCC(N)CC4)c3)nc12 [Compound 171]

# System: MOLT-4
# Test: Cellular MOLT-4 viability assay (CellTiter-Glo, 72 hours)
# Type: cell-based
# Details: Homo sapiens, MOLT4 viability assay
# How it was run: as §1
row,pIC50,SMILES
1,5.00 to 6.00,CC(C)c1cnn2c(NCc3ccccc3-c3ccc4ccccc4n3)cc(N3CCC(N)CC3)nc12 [Compound 73]
2,5.00 to 6.00,CC(C)c1cnn2c(NCc3ccccc3-n3cccn3)nc(-c3cccc(C(=O)N4CCC(N)CC4)c3)nc12 [Compound 171]
3,< 5.00,CC(C)c1cnn2c(NCc3ccccc3-c3nccc4ccccc34)nc(N3CCC(N)CC3)nc12 [Compound 79]

# Molecular target: T3, CDK1/Cyclin B (Homo sapiens, UniProt P06493)
# T3 construct: purchased Invitrogen PR4768C
# Test: Enzymatic assay for CDK1 (FRET based LANCE Ultra kinase assay)
# Type: biochemical
# Details: read-out: CDK1 enzymatic activity (IC50 range)
# How it was run: as §2
# T3 sequence (P06493 whole entry): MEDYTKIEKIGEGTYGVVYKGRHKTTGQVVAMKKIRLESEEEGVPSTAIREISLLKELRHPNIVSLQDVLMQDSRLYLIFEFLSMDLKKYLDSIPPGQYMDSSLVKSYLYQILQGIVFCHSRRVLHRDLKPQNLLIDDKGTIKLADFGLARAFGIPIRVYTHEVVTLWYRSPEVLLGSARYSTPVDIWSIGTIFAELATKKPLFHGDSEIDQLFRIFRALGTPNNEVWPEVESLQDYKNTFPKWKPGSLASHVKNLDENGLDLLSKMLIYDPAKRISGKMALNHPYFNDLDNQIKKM
# T3 sequence (P14635 whole entry partner): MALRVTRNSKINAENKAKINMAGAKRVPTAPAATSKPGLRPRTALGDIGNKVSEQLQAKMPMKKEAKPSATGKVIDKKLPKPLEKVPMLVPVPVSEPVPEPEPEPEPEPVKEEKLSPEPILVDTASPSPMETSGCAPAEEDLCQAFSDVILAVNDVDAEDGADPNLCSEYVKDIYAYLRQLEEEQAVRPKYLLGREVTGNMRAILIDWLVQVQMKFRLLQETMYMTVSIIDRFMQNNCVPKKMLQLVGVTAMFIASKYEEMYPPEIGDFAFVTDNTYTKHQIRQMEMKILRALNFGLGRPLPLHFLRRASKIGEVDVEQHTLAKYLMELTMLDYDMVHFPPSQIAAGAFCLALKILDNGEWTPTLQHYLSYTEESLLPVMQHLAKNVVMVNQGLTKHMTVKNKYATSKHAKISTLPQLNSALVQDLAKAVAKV
row,pIC50,SMILES
1,< 6.00,CC(C)c1cnn2c(NCc3ccccc3-c3ccc4ccccc4n3)cc(N3CCC(N)CC3)nc12 [Compound 73]
2,< 6.00,CC(C)c1cnn2c(NCc3ccccc3-n3cccn3)nc(-c3cccc(C(=O)N4CCC(N)CC4)c3)nc12 [Compound 171]
3,< 6.00,CC(C)c1cnn2c(NCc3ccccc3-c3nccc4ccccc34)nc(N3CCC(N)CC3)nc12 [Compound 79]

# Molecular target: T4, CDK7/Cyclin H/MNAT1 (Homo sapiens, UniProt P50613)
# T4 construct: purchased Invitrogen PR6749B
# Test: Enzymatic assay for CDK7 (FRET based LANCE Ultra kinase assay)
# Type: biochemical
# Details: CDK7 over CDK1
# How it was run: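 LANCE Ultra TR-FRET kinase assay using a ULight-labeled peptide substrate and a Eu-labeled anti-phospho antibody, with ATP at its Km. Purified CDK/cyclin complex was added to compound after brief centrifugation.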
# T4 sequence (P50613 whole entry): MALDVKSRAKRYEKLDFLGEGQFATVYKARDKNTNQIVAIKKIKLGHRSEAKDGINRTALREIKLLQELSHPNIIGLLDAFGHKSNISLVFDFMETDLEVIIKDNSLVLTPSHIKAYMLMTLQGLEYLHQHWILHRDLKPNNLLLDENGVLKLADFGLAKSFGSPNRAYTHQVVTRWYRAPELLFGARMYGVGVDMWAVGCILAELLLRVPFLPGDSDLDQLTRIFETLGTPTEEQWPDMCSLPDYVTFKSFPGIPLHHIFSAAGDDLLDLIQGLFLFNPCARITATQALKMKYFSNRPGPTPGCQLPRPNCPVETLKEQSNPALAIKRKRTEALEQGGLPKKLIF
# T4 sequence (P51946 whole entry partner): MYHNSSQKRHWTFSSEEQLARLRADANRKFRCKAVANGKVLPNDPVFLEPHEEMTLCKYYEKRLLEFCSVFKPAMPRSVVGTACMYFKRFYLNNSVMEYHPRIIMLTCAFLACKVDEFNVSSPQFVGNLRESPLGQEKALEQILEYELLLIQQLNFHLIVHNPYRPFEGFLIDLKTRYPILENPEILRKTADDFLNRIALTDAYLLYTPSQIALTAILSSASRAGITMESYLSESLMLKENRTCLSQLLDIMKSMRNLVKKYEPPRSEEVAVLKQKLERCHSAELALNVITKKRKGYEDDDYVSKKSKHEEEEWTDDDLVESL
# T4 sequence (P51948 whole entry partner): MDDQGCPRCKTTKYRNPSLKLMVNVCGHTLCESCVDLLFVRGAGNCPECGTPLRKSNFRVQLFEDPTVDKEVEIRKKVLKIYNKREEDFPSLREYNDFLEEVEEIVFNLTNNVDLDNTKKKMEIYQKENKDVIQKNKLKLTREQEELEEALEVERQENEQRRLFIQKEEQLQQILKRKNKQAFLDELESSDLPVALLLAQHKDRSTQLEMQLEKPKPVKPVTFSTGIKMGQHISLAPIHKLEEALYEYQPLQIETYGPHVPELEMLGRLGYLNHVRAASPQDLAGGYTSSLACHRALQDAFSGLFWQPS
row,CDK1/CDK7: Selectivity of CDK7 inhibition over CDK1 inhibition,SMILES
1,A (A=greater than 200 fold),CC(C)c1cnn2c(NCc3ccccc3-c3ccc4ccccc4n3)cc(N3CCC(N)CC3)nc12 [Compound 73]
2,A (A=greater than 200 fold),CC(C)c1cnn2c(NCc3ccccc3-n3cccn3)nc(-c3cccc(C(=O)N4CCC(N)CC4)c3)nc12 [Compound 171]
3,A (A=greater than 200 fold),CC(C)c1cnn2c(NCc3ccccc3-c3nccc4ccccc34)nc(N3CCC(N)CC3)nc12 [Compound 79]

# Same assay, conditions: CDK7 over CDK2
row,CDK2/CDK7: Selectivity of CDK7 inhibition over CDK2 inhibition,SMILES
1,A (A=greater than 200 fold),CC(C)c1cnn2c(NCc3ccccc3-c3ccc4ccccc4n3)cc(N3CCC(N)CC3)nc12 [Compound 73]
2,A (A=greater than 200 fold),CC(C)c1cnn2c(NCc3ccccc3-n3cccn3)nc(-c3cccc(C(=O)N4CCC(N)CC4)c3)nc12 [Compound 171]
3,A (A=greater than 200 fold),CC(C)c1cnn2c(NCc3ccccc3-c3nccc4ccccc34)nc(N3CCC(N)CC3)nc12 [Compound 79]

# Same assay, conditions: CDK7 over CDK5
row,CDK5/CDK7: Selectivity of CDK7 inhibition over CDK5 inhibition,SMILES
1,A (A=greater than 200 fold),CC(C)c1cnn2c(NCc3ccccc3-n3cccn3)nc(-c3cccc(C(=O)N4CCC(N)CC4)c3)nc12 [Compound 171]
2,A (A=greater than 200 fold),CC(C)c1cnn2c(NCc3ccccc3-c3nccc4ccccc34)nc(N3CCC(N)CC3)nc12 [Compound 79]

row,SMILES,CDK5/CDK7: Selectivity of CDK7 inhibition over CDK5 inhibition
1,CC(C)c1cnn2c(NCc3ccccc3-c3ccc4ccccc4n3)cc(N3CCC(N)CC3)nc12 [Compound 73],"B (B=less than 200 fold, but greater than 20 fold)"

# Same assay, conditions: read-out: CDK7 enzymatic activity (IC50 range)
row,pIC50,SMILES
1,> 7.00,CC(C)c1cnn2c(NCc3ccccc3-c3ccc4ccccc4n3)cc(N3CCC(N)CC3)nc12 [Compound 73]
2,> 7.00,CC(C)c1cnn2c(NCc3ccccc3-n3cccn3)nc(-c3cccc(C(=O)N4CCC(N)CC4)c3)nc12 [Compound 171]
3,> 7.00,CC(C)c1cnn2c(NCc3ccccc3-c3nccc4ccccc34)nc(N3CCC(N)CC3)nc12 [Compound 79]

# System: RPMI-8226
# Test: Cellular RPMI-8226 viability assay (CellTiter-Glo, 72 hours)
# Type: cell-based
# Details: Homo sapiens
# How it was run: as §1
row,pIC50,SMILES
1,5.00 to 6.00,CC(C)c1cnn2c(NCc3ccccc3-c3ccc4ccccc4n3)cc(N3CCC(N)CC3)nc12 [Compound 73]
2,5.00 to 6.00,CC(C)c1cnn2c(NCc3ccccc3-n3cccn3)nc(-c3cccc(C(=O)N4CCC(N)CC4)c3)nc12 [Compound 171]
3,5.00 to 6.00,CC(C)c1cnn2c(NCc3ccccc3-c3nccc4ccccc34)nc(N3CCC(N)CC3)nc12 [Compound 79]

# System: MM.1S
# Test: Cellular MM.1S viability assay (CellTiter-Glo, 72 hours)
# Type: cell-based
# Details: Homo sapiens, MM1.S
# From the text: Human T-cell acute lymphoblastic leukemia cell line, MOLT-4 (ATCC, Cat #CRL-1582), Human multiple myeloma cell line, RPMI-8226 (Invitrogen, Cat #22400-089) and MM.1S (ATCC, Cat #CRL-2974), NSCLC (Non-small cell lung cancer) cell line H460 (ATCC, Cat #HTB-177), Human colon colorectal carcinoma cell line HCT116 (ATCC, Cat #CCL-247), Human acute monocytic leukemia cell line MV4-11 (ATCC, Cat #CRL-9591), OVCAR-3 (ATCC, Cat #HTB-161) and A2780 (ECACC, Cat #93112519) were obtained from ATCC. Cells were grown in RPMI-1640 media (Invitrogen, Cat #22400-089) supplemented with 10% FBS (Invitrogen, Cat #10099141) and 1% penicillin/streptomycin (Invitrogen, Cat #15070063) and cultured at 37° C., 5% CO2 in a humidified chamber. All cell lines were routinely tested for mycoplasma.
# The effect of the CDK7 inhibitor to inhibit the growth of target cancer cells was evaluated through the 72 hours time period of viability assay. Briefly, the candidate cell line ware plated in 96 well plate at the following density of cells respectively. 1×10^4 cells/well for MOLT-4, RPMI-8226, MV4-11 and MM.1S, 5×10^3 for H460, HCT116 and OVCAR-3 and IX 10^3 for A2780. After 24 hours, the cells were treated with various concentrations of the compound (ranging from 0.0015 uM to 10 uM). DMSO solvent without compound served as a control and final DMSO concentration less than 0.1%. After 72 hours of incubation at 37° C., 5% CO2 incubator, cells were analyzed for the viability using the CellTiter-Glo Luminescent Cell Viability Assay (Promega, Cat #G7570). All viability assays were performed in duplicate and Luminescence was read using an Envision (Perkin Elmer, USA). Data was analyzed using XLfit software.
row,pIC50,SMILES
1,≥ 6.00,CC(C)c1cnn2c(NCc3ccccc3-c3ccc4ccccc4n3)cc(N3CCC(N)CC3)nc12 [Compound 73]
2,≥ 6.00,CC(C)c1cnn2c(NCc3ccccc3-n3cccn3)nc(-c3cccc(C(=O)N4CCC(N)CC4)c3)nc12 [Compound 171]
3,5.00 to 6.00,CC(C)c1cnn2c(NCc3ccccc3-c3nccc4ccccc34)nc(N3CCC(N)CC3)nc12 [Compound 79]
